Assay results taken from ChEMBL document CHEMBL5108021, “Discovery of 3-pyrazolyl-substituted pyrazolo[1,5-a]pyrimidine derivatives as potent TRK inhibitors to overcome clinically acquired resistance” (Eur J Med Chem, 2022).

What was measured:
BaF3 [1] = assay: Antitumor activity against mouse BaF3 cells expressing […]-wild type TRKA xenografted in BALB/c mouse assessed as inhibition of tumor growth at 30 mg/kg, po bid for 11 to 14 days by microcaliper analysis; format: functional; conditions: time 11-14 day, read-out: TGI
BaF3 [2] = assay: animal or person; conditions: Mus musculus, BaF3, po, read-out: TGI

Structure (SMILES)	inhibition in vivo at 30 mg/kg (BaF3 [1])	inhibition in vivo at 100 mg/kg (BaF3 [2])
O=C(Nc1cnn2ccc(N3CCC[C@@H]3c3cc(F)ccc3F)nc12)N1CC[C@H](O)C1 [LAROTRECTINIB]	74%	
C[C@@H]1CCc2ncc(F)cc2[C@H]2CCCN2c2ccn3ncc(c3n2)C(=O)N1 [SELITRECTINIB]		64%
